Design in all cases: species or system SD rats
For assay [1], the target named is T1, dopamine D2 receptor (Rattus norvegicus, UniProt P61169).
T1 construct: the receptor fraction prepared from the corpus striatum was molten and suspended; from tissue; host or cells: corpus striatum of SD rats (membrane fraction)
As to the kind of experiment: dopamine D2 receptor binding test ([3H] Spiperone Binding Test). The note with it: 1 nM [3H] Spiperone, rat corpus striatum, room temperature, 60 minutes. An outline of the steps: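 Rat (SD, 6–8 weeks) corpus striatum membranes in 50 mM Krebs-Tris pH 7.4 were incubated with 1 nM [3H]spiperone at room temperature for 60 minutes, with nonspecific binding defined by excess spiperone. IC50 came from probit analysis; Ki was derived using radioligand concentration and Scatchard Kd.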

Assay [2] has as its target adrenergic α1 receptor. Put plainly: adrenergic α1 receptor binding test ([3H] Prazosin Binding Test). The note with it: 1 nM [3H] Prazosin, rat cortex, room temperature, 60 minutes. An outline of the steps: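 Rat (SD, 6-8 weeks) cerebral cortex membranes in 50 mM Tris-HCl pH 7.4 incubated with 1 nM [3H]prazosin for 60 min at room temperature; nonspecific binding defined with phentolamine. IC50 by probit method, converted to Ki using radioligand concentration and Scatchard-derived Kd.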

The target in assay [3] is T2, serotonin S2 receptor (Rattus norvegicus, UniProt P14842).
T2 construct: The receptor fraction prepared from the cortex was molten and suspended; from tissue; host or cells: cerebral cortex of SD rats (membrane fraction)
Put plainly: serotonin S2 receptor binding test ([3H] Ketanserin Binding Test). The note with it: 1 nM [3H] Ketanserin, rat cortex, 37° C., 15 minutes. An outline of the steps: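 Ki values came from probit IC50s corrected for radioligand concentration and Kd (Scatchard). Binding used 1 nM [3H]ketanserin with SD rat cortex membrane fractions, 15 min at 37 °C in Tris-HCl pH 7.4. Bound radioactivity was measured after GF/B filtration, with methysergide for nonspecific binding.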

Setting [4] is: read-out: Ki value, dopamine D2 receptor.

The structures appear in SMILES notation. pKi: −log10 of the molar value. Where a name gives a salt, the structure may show the parent alone. Read-outs that look alike come from different tables or passages of the source.

T1 sequence (P61169 whole entry): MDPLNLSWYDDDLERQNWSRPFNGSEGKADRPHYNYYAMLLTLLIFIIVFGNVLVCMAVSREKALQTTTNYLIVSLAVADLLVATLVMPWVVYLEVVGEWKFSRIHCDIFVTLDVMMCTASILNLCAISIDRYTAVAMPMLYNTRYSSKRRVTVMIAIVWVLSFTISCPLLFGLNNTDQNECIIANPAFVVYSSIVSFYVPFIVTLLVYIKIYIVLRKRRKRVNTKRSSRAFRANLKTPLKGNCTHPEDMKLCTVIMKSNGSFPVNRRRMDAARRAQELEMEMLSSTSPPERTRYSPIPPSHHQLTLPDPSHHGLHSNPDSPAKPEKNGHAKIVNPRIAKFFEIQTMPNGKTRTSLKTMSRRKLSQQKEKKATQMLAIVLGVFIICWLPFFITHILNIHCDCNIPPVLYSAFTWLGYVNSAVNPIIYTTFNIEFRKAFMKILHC
T2 sequence (P14842 whole entry): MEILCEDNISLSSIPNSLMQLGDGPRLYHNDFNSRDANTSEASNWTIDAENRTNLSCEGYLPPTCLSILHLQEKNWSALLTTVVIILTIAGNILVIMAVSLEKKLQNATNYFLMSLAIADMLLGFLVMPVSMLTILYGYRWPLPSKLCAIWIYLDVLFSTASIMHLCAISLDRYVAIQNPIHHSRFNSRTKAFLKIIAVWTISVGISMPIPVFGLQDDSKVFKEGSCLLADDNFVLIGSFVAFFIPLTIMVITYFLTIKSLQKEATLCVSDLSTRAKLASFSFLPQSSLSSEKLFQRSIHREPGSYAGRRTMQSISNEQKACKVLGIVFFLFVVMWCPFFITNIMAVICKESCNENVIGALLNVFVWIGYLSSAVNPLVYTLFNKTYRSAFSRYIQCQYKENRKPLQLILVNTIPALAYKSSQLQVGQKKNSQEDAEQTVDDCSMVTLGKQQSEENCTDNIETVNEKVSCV

Broadly, the pKi is the Ki on a negative log10 scale, so that one unit is a factor of ten. Consider `CCC(F)c1cc(N2CCN(CC)CC2)cc(-c2ccc(F)cc2Cl)c1Cl` (stereo not drawn) [Example 156], for which the pKi in assay [1] (setting [4]) is 8.86; in assay [2] it was 6.29; in assay [3] it was 7.54.

As to `CCN1CCN(c2cc(-c3ccccc3)c(OC)c(C3CCCO3)c2)CC1` (stereo not drawn) [Example 95, 1-Ethyl-4-[3-phenyl-4-methoxy-5-(2-tetrahydrofuranyl)]phenylpiperazine], the pKi in assay [1] (setting [4]) is 6.98; in assay [2], 6.55; in assay [3] it was 7.39.

Consider `CCCS(=O)(=O)Nc1cc(N2CCN(CC)CC2)cc(-c2ccccc2C)c1Cl` [Example 17, 1-ethyl-4-[3-(2-tolyl)-4-chloro-5-propanesulfonylamino]phenylpiperazine hydrochloride], for which the pKi in assay [1] (setting [4]) was under 7.00; in assay [2] (hydrochloride) it was 6.26; in assay [3], 6.43.

On to `CN1CCN(c2cc(NS(=O)(=O)Cc3ccccc3)c(Cl)c(-c3ccccc3Cl)c2)CC1` [Example 179, 1-Methyl-4-[3-(2-chlorophenyl)-4-chloro-5-benzylsulfonylamino]phenylpiperazine], for which the pKi is 8.22 in assay [1] (setting [4]), 7.14 in assay [2] and 8.18 in assay [3].

With `CCN1CCN(c2cc(C(=O)Cc3ccncc3)c(OC)c(-c3ccccc3)c2)CC1` [Example 103, 1-Ethyl-4-[3-phenyl-4-methoxy-5-(4-pyridyl)acetyl]phenylpiperazine], the pKi in assay [1] (setting [4]) is 7.00; in assay [2], under 6.00; in assay [3], 8.18.

On to `CCCCS(=O)(=O)Nc1cc(N2CCN(C)CC2)cc(-c2ccccc2Cl)c1Cl` [Example 36, 1Methyl-4-[3-(2-chlorophenyl)-4-chloro-5-butanesulfonylamino]phenylpiperazine], for which the pKi was 8.90 in assay [1] (setting [4]), 7.60 in assay [2] and 8.39 in assay [3].

In the case of `CCC(F)c1cc(N2CCN(C)CC2)cc(-c2ccccc2)c1Cl` (stereo not drawn) [Example 206], the pKi in assay [1] (Ki value, dopamine D2 receptor) was 8.97; in assay [2] it was 7.32; in assay [3], 8.37.

As to `CCN1CCN(c2cc(-c3ccccc3)c(OC)c(-c3ccccn3)c2)CC1` [Example 97, 1-Ethyl-4-[3-phenyl-4-methoxy-5-(2-pyridyl)]phenylpiperazine], the pKi in assay [1] (setting [4]) is under 6.00; in assay [2] it was under 6.00; in assay [3] it was 6.61.

Turning to `CCN1CCN(c2cc(-c3ccc(F)cc3C)c(Cl)c(S(=O)(=O)NC3CC3)c2)CC1` [Example 146, 1-Ethyl-4-{3-[2(4-fluorotolyl)-]4-chloro-5-cyclopropaneaminosulfonyl}phenylpiperazine], the pKi in assay [1] (setting [4]) is 9.08; in assay [2], 6.46; in assay [3], 7.88.

For `CCN1CCN(c2cc(-c3ccccc3)c(OC)c(S(=O)(=O)N3CCCC3)c2)CC1` [Example 135, 1-Ethyl-4-[3-phenyl-4-methoxy-5-(1-pyrrolidinylsulfonyl)]phenylpiperazine], the values for the pKi in assay [1] (setting [4]), in assay [2] and in assay [3] were 7.38, under 6.00 and 7.80, respectively.

As for `CCCC(F)c1cc(N2CCN(CC)CC2)cc(-c2ccccc2C)c1Cl` (stereo not drawn) [Example 49, 1-Ethyl-4-[3-(2-tolyl)-4-chloro-5-(1-fluorobutyl)]phenylpiperazine], the pKi was 8.22 in assay [1] (setting [4]), under 6.00 in assay [2] and 7.70 in assay [3].

In the case of `CCN1CCN(c2cc(-c3ccccc3)c(OC)c(S(=O)(=O)N(C)C)c2)CC1` [Example 134, 1-Ethyl-4-(3-phenyl-4-methoxy-5-dimemthylaminosulfonyl)phenylpiperazine], the values for the pKi in assay [1] (setting [4]), in assay [2] and in assay [3] were 7.22, under 6.00 and 7.52, respectively.

On to `CCCS(=O)(=O)Nc1cc(N2CCN(CC)CC2)cc(-c2ccccc2CC)c1Cl` [Example 194, 1-Ethyl-4-[3-(2-ethylphenyl)-4-chloro-5-propanesulfonylamino]phenylpiperazine], for which the pKi is 9.08 in assay [1] (setting [4]), under 6.00 in assay [2] and 8.35 in assay [3].

The values are drawn from patent US6281214A, “Biphenyl derivatives” (Eisai Co., Ltd, priority 1994, dated 2001).
